{
  "source": "patent US9737495B2",
  "about": "“Process for obtaining purified pterostilbene and methods of use thereof” (Indus Biotech Private Limited, priority 2009, dated 2017)",
  "key": {"[1]": {"target": "T1, Human recombinant deacetylase sirtuin SIRT2 (Homo sapiens, UniProt Q8IXJ6)", "T1 construct": "host or cells: E. coli", "T1 sequence (Q8IXJ6 1-389)": "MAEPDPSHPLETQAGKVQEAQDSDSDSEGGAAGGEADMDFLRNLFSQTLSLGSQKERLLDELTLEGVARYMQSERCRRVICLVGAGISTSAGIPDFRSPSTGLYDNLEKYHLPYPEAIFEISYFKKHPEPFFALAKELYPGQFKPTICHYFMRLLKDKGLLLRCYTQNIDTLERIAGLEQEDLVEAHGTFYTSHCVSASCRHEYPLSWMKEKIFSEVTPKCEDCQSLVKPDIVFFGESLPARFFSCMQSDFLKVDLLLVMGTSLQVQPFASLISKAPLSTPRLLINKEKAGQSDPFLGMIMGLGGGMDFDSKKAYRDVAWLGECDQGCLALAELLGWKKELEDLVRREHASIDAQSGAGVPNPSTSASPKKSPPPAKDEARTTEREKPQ", "assay": "SIRT2 inhibition, Fluor de Lys fluorimetric deacetylase assay (in vitro)", "format": "biochemical", "conditions": "read-out: IC50 for SIRT2 (converted)", "experimental": "(§1) Human recombinant deacetylase sirtuin SIRT2 expressed in E. coli was used. Test compound (1, 10, 100 and 1000 μg/ml conc.) and/or vehicle was pre-incubated with 2 μg/ml enzyme in Tris-HCl buffer pH 8.0 for 15 minutes at 37° C. The reaction is initiated by addition of 25 μM Fluor de Lys-SIRT1 and 150 μM NAD for another 120 minute incubation period and is terminated by further addition of Fluor de Lys Developer. Determination of the amount of de-acetate Fluor de Lys formed is read spectrofluorimetrically with excitation at 360 nm and emission at 465 nm. The concentration-response (% inhibition) curve was plotted and IC50 was calculated.\nas §1, with “37 °C.” for “37° C.”"}, "3-NP induced HD in rats [2]": {"system": "3-NP induced HD in rats", "assay": "3-NP induced HD in rats: neurological behavioral grading", "format": "in vivo, Wistar rats", "conditions": "for neurological behavioral changes (neurological problems score, grades 0-5) / neurological score, % change from cyclo + 3-NPA treatment: 30 mg/kg p.o. + 3-NPA", "experimental": "(§2) 3-NP (20 mg/kg i.p., daily in 2 divided doses) was administered to all the Wistar rats of weight range 250-300 g. in two divided doses at 12 hr interval for 9-11 days until disease is induced (acutely ill). It took 12 days to completely induce the disease symptoms. 3-NP was diluted with water and the pH will be adjusted upto 7.4 with NaOH. It was administered intraperitoneally (i.p.) at a dose of 10 mg/kg every 12 hrs (8:00 am and 8:00 pm) for 12 days (total daily dose 20 mg/kg). The observations were done on day 0, 7, 9, 11 and 13. The test compound was administered for the same period p.o. (per oral) one hour before 3-NP injection (at 7:00 AM daily) at dose of 30 mg/kg, p.o. The experimental groups were as follows: 1) Healthy Control: No treatment 2) HD control (3-NP+cyclodextrin) 3) TEST COMPOUND (30 mg/kg, p.o. daily complexed with cyclodextrin) treated.\nBehavioral changes were recorded daily, and immediately before sacrifice, graded according to the neurological scale described. A total of 6 grades included: • Grade 0: normal behavior; • Grade 1: general slowness in movement due to mild hind-limb impairment; • Grade 2: prominent gait abnormality with poor coordination; • Grade 3: nearly complete hind-limb paralysis; • Grade 4: incapability to move due to four-limb impairment; and • Grade 5: recumbence."}, "SIRT1": {"target": "T2, SIRT1 (Homo sapiens, UniProt Q96EB6)", "T2 sequence (Q96EB6 1-747)": "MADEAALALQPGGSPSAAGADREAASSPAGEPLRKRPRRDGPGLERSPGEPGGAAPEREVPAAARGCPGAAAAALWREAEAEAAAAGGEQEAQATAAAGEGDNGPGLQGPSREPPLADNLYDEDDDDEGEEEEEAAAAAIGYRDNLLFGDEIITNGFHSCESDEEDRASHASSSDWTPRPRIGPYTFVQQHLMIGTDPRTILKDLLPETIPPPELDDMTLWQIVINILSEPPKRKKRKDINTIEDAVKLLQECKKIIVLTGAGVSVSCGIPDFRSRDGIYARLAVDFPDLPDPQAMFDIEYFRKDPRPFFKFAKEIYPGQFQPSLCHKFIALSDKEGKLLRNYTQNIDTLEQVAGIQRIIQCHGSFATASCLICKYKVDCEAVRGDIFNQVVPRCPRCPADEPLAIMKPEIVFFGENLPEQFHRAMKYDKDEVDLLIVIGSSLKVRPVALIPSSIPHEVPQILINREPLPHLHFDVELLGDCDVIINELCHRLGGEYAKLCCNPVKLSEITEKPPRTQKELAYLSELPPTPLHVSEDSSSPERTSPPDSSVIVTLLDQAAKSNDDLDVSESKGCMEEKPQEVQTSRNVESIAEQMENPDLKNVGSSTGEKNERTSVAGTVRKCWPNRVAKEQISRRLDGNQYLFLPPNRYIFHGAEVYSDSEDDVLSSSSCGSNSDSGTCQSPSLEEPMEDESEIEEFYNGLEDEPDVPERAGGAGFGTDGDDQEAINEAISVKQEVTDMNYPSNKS", "assay": "SIRT1 inhibition, Fluor de Lys fluorimetric deacetylase assay (in vitro)", "format": "biochemical", "conditions": "read-out: IC50 for SIRT1 (converted)"}, "3-NP induced HD in rats [3]": {"system": "3-NP induced HD in rats", "assay": "3-NP induced HD in rats: squares crossed in open field test", "format": "in vivo, Wistar rats", "conditions": "30 mg/kg p.o. + 3-NPA", "experimental": "as §2"}, "3-NP induced HD in rats [4]": {"system": "3-NP induced HD in rats", "assay": "3-NP induced HD in rats: brain wet weight", "format": "in vivo, Wistar rats", "conditions": "Day 13, 30 mg/kg p.o. + 3-NPA", "experimental": "as §2\nOn day 13, the brains of the rats were dissected out and cleaned. The wet weight of the brains were recorded for each rat. The results are also graphically represented in FIG. 3\nOn day 13, the brains of the rats were dissected out and cleaned. The wet weight of the brains were recorded for each rat."}, "3-NP induced HD in rats [5]": {"system": "3-NP induced HD in rats", "assay": "3-NP induced HD in rats: body weight", "format": "in vivo, Wistar rats", "conditions": "for % difference of body weights: 30 mg/kg p.o. daily complexed with cyclodextrin + 3-NPA 20 mg/kg/day i.p., n=6", "experimental": "as §2"}, "[6]": {"conditions": "test conc. 1-1000 μg/ml, pH 8.0, 37° C."}},
  "note": "Where two headings read alike, the source gives them in different places.",
  "data": [
    {"smiles": "COc1cc(/C=C/c2ccc(O)cc2)cc(OC)c1", "note": "[Test compound, pterostilbene]", "values": [
      {"measurement": "IC50", "setting": "[1]; conversion of the μg/ml value", "result": 45, "unit": "µM"},
      {"measurement": "IC50", "setting": "[1]; [6]", "result": 45.6, "unit": "µM"},
      {"measurement": "neurological behavioral changes (neurological problems score, grades 0-5)", "setting": "3-NP induced HD in rats [2]; Day 7", "result": 0},
      {"measurement": "neurological behavioral changes (neurological problems score, grades 0-5)", "setting": "3-NP induced HD in rats [2]; Day 9", "result": 1},
      {"measurement": "neurological score, % change from cyclo + 3-NPA treatment", "setting": "3-NP induced HD in rats [2]; Day 9", "result": "−83.33", "unit": "%"},
      {"measurement": "neurological behavioral changes (neurological problems score, grades 0-5)", "setting": "3-NP induced HD in rats [2]; Day 11", "result": 7},
      {"measurement": "neurological score, % change from cyclo + 3-NPA treatment", "setting": "3-NP induced HD in rats [2]; Day 11", "result": "−30", "unit": "%"},
      {"measurement": "neurological behavioral changes (neurological problems score, grades 0-5)", "setting": "3-NP induced HD in rats [2]; Day 13 (after 12-day treatment)", "result": 13},
      {"measurement": "neurological score, % change from cyclo + 3-NPA treatment", "setting": "3-NP induced HD in rats [2]; Day 13", "result": "−23.52", "unit": "%"},
      {"measurement": "reduction of neurological problems as compared to vehicle (cyclo+3-NPA) group", "setting": "3-NP induced HD in rats [2]; after 12-day treatment (Day 13), 30 mg/kg p.o.", "result": 23.52, "unit": "%"},
      {"measurement": "IC50", "setting": "SIRT1; conversion of the μg/ml value", "result": 47, "unit": "µM"},
      {"measurement": "IC50", "setting": "SIRT1; [6]", "result": 47.2, "unit": "µM"},
      {"measurement": "number of squares crossed in open field test", "setting": "3-NP induced HD in rats [3]; Day 7", "result": "144.17 ± 7.47"},
      {"measurement": "number of squares crossed in open field test", "setting": "3-NP induced HD in rats [3]; Day 9", "result": "125.67 ± 6.22"},
      {"measurement": "number of squares crossed in open field test", "setting": "3-NP induced HD in rats [3]; Day 11", "result": "109.00 ± 13.72"},
      {"measurement": "number of squares crossed in open field test", "setting": "3-NP induced HD in rats [3]; Day 13", "result": "77.83 ± 6.92"},
      {"measurement": "Brain weight (g)-Mean ± SEM", "setting": "3-NP induced HD in rats [4]", "result": "1.605 ± 0.0659", "unit": "g"},
      {"measurement": "% difference of body weights", "setting": "3-NP induced HD in rats [5]; Day 7", "result": "1.90 ± 3.72", "unit": "%"},
      {"measurement": "% difference of body weights", "setting": "3-NP induced HD in rats [5]; Day 9", "result": "−0.82 ± 3.77", "unit": "%"},
      {"measurement": "% difference of body weights", "setting": "3-NP induced HD in rats [5]; Day 11", "result": "−2.53 ± 3.70", "unit": "%"},
      {"measurement": "% difference of body weights", "setting": "3-NP induced HD in rats [5]; Day 13", "result": "−6.08 ± 4.10", "unit": "%"},
      {"measurement": "reduction in body weight", "setting": "3-NP induced HD in rats [5]; after 11 days, 30 mg/kg p.o. + 3-NP (3-NP alone 12.48%)", "result": 2.53, "unit": "%"}
    ]}
  ]
}
